In US20240300932A1, “N-PHENYLIMINE DERIVATIVE AND PREPARATION METHOD AND USE THEREOF” (Guizhou University, priority 2023, published 2024):

Key:
Experiment in all cases: Post-emergence herbicidal activity test (stem and leaf spray, pot culture)
Format in all cases: in vivo
Settings in all cases: 3 weeks after spraying
[1] = system: Amaranthus retroflexus
Description: (§1) The weeds were cultivated in a 180 mm×140 mm plastic nutrient pot by a pot-culture method, placed in an enamel tray, and the plastic nutrient pots were filled with surface soil (⅘ of a depth) collected from a farmland and air-dried and sieved, and a soil humidity was controlled at 20% in the initial stage. Weed seeds with plump and uniform grains were selected, soaked in warm water at 25° C. for 6 h, and germinated in a biochemical incubator (dark) at 28° C. The freshly exposed weed seeds were evenly placed on the soil surface, and then covered with 0.5 cm to 1 cm of soil according to the size of the seeds. The weeds are cultivated in a controlled sunlight greenhouse at 20° C. to 30° C., under natural light, and a relative humidity of 57% to 72%. The soil was loam, including 1.63% of organic matters, with a pH value of 7, 84.3 mg/kg of alkaline nitrogen, 38.5 mg/kg of available phosphorus, and 82.1 mg/kg of available potassium.
(§2) Each treatment was repeated 2 times, each treatment included 12 pots, and 20 weed seeds were sown in each pot. Pesticide was applied in the test for 1 time in total. When the weeds grew to 1.5- to 2-leaf stage, thinning was conducted, with 10 weeds in each pot, and 30 weeds were kept in each treatment.
(§3) The cultivated weeds were placed on trays with an area of 0.1 m^2, and stems and leaves were sprayed with a sprayer. After applying a pesticide, the pesticide applied weeds were moved into a greenhouse for routine cultivation.
(§4) 2 weeks after sowing, the test plants were treated at the 2- to 3-leaf stage: the compounds of the present disclosure for testing were dissolved in acetone separately, and added with Tween 80, an emulsifiable oil of 1.5 liters/ha methyl oleate was added as a synergist, and an obtained mixture was diluted with certain water to a certain concentration solution. The solution was sprayed onto the plants using a spray tower. After spraying, the weeds were cultivated in the greenhouse for 3 weeks, and the experimental effects on the weeds were counted. The effective concentrations of the compounds were 10 g/mu, 5 g/mu, and 2.5 g/mu, the experiment was repeated three times, and an average result was taken.
(§5) The activity level criteria for plant destruction (i.e. growth control rate) are as follows: • Grade 5: the growth control rate is greater than or equal to 85%; • Grade 4: the growth control rate is greater than or equal to 60% and less than 85%; • Grade 3: the growth control rate is greater than or equal to 40% and less than 60%; • Grade 2: the growth control rate is greater than or equal to 20% and less than 40%; • Grade 1: the growth control rate is greater than or equal to 5% and less than 20%; and • Grade 0: the growth control rate is less than 5%.
(§6) The growth control rate is a fresh weight control rate.

[2] = system: Portulaca oleracea
Description: as §1, §2, §3, §4, §5, §6

[3] = system: Setaria viridis
Description: as §1, §2, §3, §4, §5, §6

[4] = system: Echinochloa crusgalli
Description: as §1, §2, §3, §4, §5, §6

[5] = system: Abutilon theophrasti
Description: as §1, §2, §3, §4, §5, §6

[6] = system: Trifoliumre pensL.
Description: (1) Post-Emergence Stem and Leaf Spray Treatment: The weeds were cultivated in a 180 mm×140 mm plastic nutrient pot by a pot-culture method, placed in an enamel tray, and the plastic nutrient pots were filled with surface soil (⅘ of a depth) collected from a farmland and air-dried and sieved, and a soil humidity was controlled at 20% in the initial stage. Weed seeds with plump and uniform grains were selected, soaked in warm water at 25° C. for 6 h, and germinated in a biochemical incubator (dark) at 28° C. The freshly exposed weed seeds were evenly placed on the soil surface, and then covered with 0.5 cm to 1 cm of soil according to the size of the seeds. The weeds are cultivated in a controlled sunlight greenhouse at 20° C. to 30° C., under natural light, and a relative humidity of 57% to 72%. The soil was loam, including 1.63% of organic matters, with a pH value of 7, 84.3 mg/kg of alkaline nitrogen, 38.5 mg/kg of available phosphorus, and 82.1 mg/kg of available potassium. Each treatment was repeated 2 times, each treatment included 12 pots, and 20 weed seeds were sown in each pot. Pesticide was applied in the test for 1 time in total. When the weeds grew to 1.5- to 2-leaf stage, thinning was conducted, with 10 weeds in each pot, and 30 weeds were kept in each treatment. The cultivated weeds were placed on trays with an area of 0.1 m^2, and stems and leaves were sprayed with a sprayer. After applying a pesticide, the pesticide applied weeds were moved into a greenhouse for routine cultivation. 2 weeks after sowing, the test plants were treated at the 2- to 3-leaf stage: the compounds of the present disclosure for testing were dissolved in acetone separately, and added with Tween 80, an emulsifiable oil of 1.5 liters/ha methyl oleate was added as a synergist, and an obtained mixture was diluted with certain water to a certain concentration solution. The solution was sprayed onto the plants using a spray tower. After spraying, the weeds were cultivated in the greenhouse for 3 weeks, and the experimental effects on the weeds were counted. The effective concentrations of the compounds were 10 g/mu, 5 g/mu, and 2.5 g/mu, the experiment was repeated three times, and an average result was taken.

Row | Compound | Post-emergence herbicidal activity, A. retroflexus (grade) ([1]; dosage 2.5 g/mu) | Post-emergence herbicidal activity, A. retroflexus (grade) ([1]; dosage 5 g/mu) | Post-emergence herbicidal activity, A. retroflexus (grade) ([1]; dosage 10 g/mu) | Post-emergence herbicidal activity, P. oleracea (grade) ([2]; dosage 2.5 g/mu) | Post-emergence herbicidal activity, P. oleracea (grade) ([2]; dosage 5 g/mu) | Post-emergence herbicidal activity, P. oleracea (grade) ([2]; dosage 10 g/mu) | Post-emergence herbicidal activity, S. viridis (grade) ([3]; dosage 2.5 g/mu) | Post-emergence herbicidal activity, S. viridis (grade) ([3]; dosage 5 g/mu) | Post-emergence herbicidal activity, S. viridis (grade) ([3]; dosage 10 g/mu) | Post-emergence herbicidal activity, E. crusgalli (grade) ([4]; dosage 2.5 g/mu) | Post-emergence herbicidal activity, E. crusgalli (grade) ([4]; dosage 5 g/mu) | Post-emergence herbicidal activity, E. crusgalli (grade) ([4]; dosage 10 g/mu) | Post-emergence herbicidal activity, A. theophrasti (grade) ([5]; dosage 2.5 g/mu) | Post-emergence herbicidal activity, A. theophrasti (grade) ([5]; dosage 5 g/mu) | Post-emergence herbicidal activity, A. theophrasti (grade) ([5]; dosage 10 g/mu) | Post-emergence herbicidal activity, Trifoliumre pensL. (grade) ([6]; dosage 2.5 g/mu) | Post-emergence herbicidal activity, Trifoliumre pensL. (grade) ([6]; dosage 5 g/mu) | Post-emergence herbicidal activity, Trifoliumre pensL. (grade) ([6]; dosage 10 g/mu)
1 | O=C1C2=C(CCCC2)C(=O)N1c1cc(OCc2nc(-c3ccccc3Cl)no2)c(Cl)cc1F [Compound A8] | 5 (Grade 5: the growth control rate is greater than or equal to 85%) | 5 (Grade 5: the growth control rate is greater than or equal to 85%) | 5 (Grade 5: the growth control rate is greater than or equal to 85%) | 4 (Grade 4: the growth control rate is greater than or equal to 60% and less than 85%) | 5 (Grade 5: the growth control rate is greater than or equal to 85%) | 5 (Grade 5: the growth control rate is greater than or equal to 85%) | 2 (Grade 2: the growth control rate is greater than or equal to 20% and less than 40%) | 3 (Grade 3: the growth control rate is greater than or equal to 40% and less than 60%) | 4 (Grade 4: the growth control rate is greater than or equal to 60% and less than 85%) | 1 (Grade 1: the growth control rate is greater than or equal to 5% and less than 20%) | 2 (Grade 2: the growth control rate is greater than or equal to 20% and less than 40%) | 3 (Grade 3: the growth control rate is greater than or equal to 40% and less than 60%) | 5 (Grade 5: the growth control rate is greater than or equal to 85%) | 5 (Grade 5: the growth control rate is greater than or equal to 85%) | 5 (Grade 5: the growth control rate is greater than or equal to 85%) | 4 (Grade 4: the growth control rate is greater than or equal to 60% and less than 85%) | 5 (Grade 5: the growth control rate is greater than or equal to 85%) | 5 (Grade 5: the growth control rate is greater than or equal to 85%)
2 | Cc1ccc(-c2noc(COc3cc(N4C(=O)C5=C(CCCC5)C4=O)c(F)cc3Cl)n2)c(F)c1 [Compound A9] | 5 (Grade 5: the growth control rate is greater than or equal to 85%) | 5 (Grade 5: the growth control rate is greater than or equal to 85%) | 5 (Grade 5: the growth control rate is greater than or equal to 85%) | 4 (Grade 4: the growth control rate is greater than or equal to 60% and less than 85%) | 5 (Grade 5: the growth control rate is greater than or equal to 85%) | 5 (Grade 5: the growth control rate is greater than or equal to 85%) | 2 (Grade 2: the growth control rate is greater than or equal to 20% and less than 40%) | 3 (Grade 3: the growth control rate is greater than or equal to 40% and less than 60%) | 4 (Grade 4: the growth control rate is greater than or equal to 60% and less than 85%) | 1 (Grade 1: the growth control rate is greater than or equal to 5% and less than 20%) | 2 (Grade 2: the growth control rate is greater than or equal to 20% and less than 40%) | 3 (Grade 3: the growth control rate is greater than or equal to 40% and less than 60%) | 5 (Grade 5: the growth control rate is greater than or equal to 85%) | 5 (Grade 5: the growth control rate is greater than or equal to 85%) | 5 (Grade 5: the growth control rate is greater than or equal to 85%) | 4 (Grade 4: the growth control rate is greater than or equal to 60% and less than 85%) | 5 (Grade 5: the growth control rate is greater than or equal to 85%) | 5 (Grade 5: the growth control rate is greater than or equal to 85%)
3 | O=C1C2=C(CCCC2)C(=O)N1c1cc(OCc2nc(-c3cnc(C(F)(F)F)cc3Cl)no2)c(Cl)cc1F [Compound A10] | 5 (Grade 5: the growth control rate is greater than or equal to 85%) | 5 (Grade 5: the growth control rate is greater than or equal to 85%) | 5 (Grade 5: the growth control rate is greater than or equal to 85%) | 4 (Grade 4: the growth control rate is greater than or equal to 60% and less than 85%) | 5 (Grade 5: the growth control rate is greater than or equal to 85%) | 5 (Grade 5: the growth control rate is greater than or equal to 85%) | 2 (Grade 2: the growth control rate is greater than or equal to 20% and less than 40%) | 3 (Grade 3: the growth control rate is greater than or equal to 40% and less than 60%) | 4 (Grade 4: the growth control rate is greater than or equal to 60% and less than 85%) | 1 (Grade 1: the growth control rate is greater than or equal to 5% and less than 20%) | 2 (Grade 2: the growth control rate is greater than or equal to 20% and less than 40%) | 3 (Grade 3: the growth control rate is greater than or equal to 40% and less than 60%) | 5 (Grade 5: the growth control rate is greater than or equal to 85%) | 5 (Grade 5: the growth control rate is greater than or equal to 85%) | 5 (Grade 5: the growth control rate is greater than or equal to 85%) | 4 (Grade 4: the growth control rate is greater than or equal to 60% and less than 85%) | 5 (Grade 5: the growth control rate is greater than or equal to 85%) | 5 (Grade 5: the growth control rate is greater than or equal to 85%)
